Assay results published in patent US20170266266A1, “Functions of 55 Newfound Proteins and Their Medicinal Application in the Treatment and Prevention of Disease” (priority 2012, published 2017).

Experiments:
HBV [1] = assay: Efficacy of RAAS-8 in the HBV mouse hydrodynamic injection model; format: in vivo, BALB/c mice
Experimental: 3.1 Hydrodynamic Injection and Compound Administration • 3.1.1. From day −7 to day 0, all 5 mice in group 4 were administrated i.p./i.v. with test article daily for 8 • days according to Table 2. • 3.1.2. On day 0, all groups of mice were hydrodynamicly injected via tail vein with pcDNA3.1/HBV plasmid DNA in a volume of normal saline equal to 8% of a mouse body weight. The plasmid DNA solution for injections was prepared one day before injection and then stored in 4E until injection. • 3.1.3. From day 0 to day 5, mice in groups 1-3 were weighed and treated with compounds or vehicle according to the regimen in Table 2. For groups 1 and 3, the first dosing was executed 4 hours pre HDI. For groups 2, the first dosing was executed 4 hours post HDI. For group 4, the last dosing was carried out 4 hours post HDI. • 3.1.4. All mice were submandibularly bled for plasma preparation according to the design in Table 1. • 3.1.5. All mice were sacrificed and dissected to obtain livers (two pieces of left lobe, one piece of middle lobe and one piece of right lobe) according to the regimen in table 1. Isolated livers were snap frozen in liquid nitrogen immediately upon collected.
3.2.1 Detect HBV DNA Replication Level in Plasma • 3.2.1.1 Isolate DNA from 50 μl plasma using QIAamp 96 DNA Blood Kit. DNA was eluted with 120 μl ddH2O. • 3.2.1.2. Run qPCR for HBV DNA quantification. • a) Dilute HBV plasmid standard by 10-fold from 10^7 copies/μl to 10 copies/μl. • b) Prepare qPCR mix as shown below.
To eliminate the influence of input HBV plasmid, primers and probe targeting HBV sequence which detect newly replicated HBV DNA and input HBV plasmid DNA and targeting pcDNA3.1 plasmid backbone sequence which only detect the input plasmid DNA were used to do real-time PCR, respectively.
HBV DNA quantity=DNA determined by HBV primer-DNA determined by plasmid primer.
Dilute the plasma 500 fold;
Detect HBsAg level in 50 μl diluted plasma by using HBsAg ELISA kit.
3.2.3.1 Liver DNA Isolation • a) Homogenize the liver tissue with Qiagen Tissue Lyser in 10 mM Tris.HCl, 10 mM EDTA, pH7.5. • b) Spin samples. Transfer the supernatant to a new tube containing equal volume of 2× proteinase K digestion buffer. Incubate at 50[…] for 3 hours. • c) Extract with phenol: chloroform: Isoamyl alcohol. • d) Transfer the upper phase to new tubes, add RNase A and incubate at 37° C. for 30 min. • e) Extract with phenol: chloroform: Isoamyl alcohol. • f) Transfer the upper phase to new microfuge tubes, add 0.7-1 volume of isopropanol, add GlycoBlue Coprecipitant to 50 μg/mL, incubate at −20[…] for 30 min. • g) Centrifuge (12000 g, 10 min) to precipitate DNA. • h) Wash the precipitate with 70% ethanol. Dissolve it in 25 μl ddH2O. Store DNA at −20[…] until use.
The total liver DNA was diluted to 10 ng/μl. […]

HBV [2] = assay: Efficacy of AFOD RAAS 105 in the HBV mouse hydrodynamic injection model; format: in vivo, BALB/c mice
Experimental: From day −7 to day 0, mice in groups 6-7 are administrated IP/IV by turn with test article daily for 8 days according to Table 3.
On day 0, mice from group 1 to group 7 are hydrodynamically injected through tail vein with pcDNA3.1/HBV plasmid DNA in a volume of normal saline equal to 8% of a mouse body weight within 5 seconds. The plasmid DNA solution for injections is prepared before injection.
From day 0 to day 4, mice in groups 3-5 are administrated IP/IV by turn with test article daily for 5 days according to Table 2. From day 0 to day 4, mice in groups 1 and 2 are administrated PO with vehicle or ETV daily for 5 days according to Table 1. For groups 1-5, the first dosing is executed 4 hours post hydrodynamic injection. For groups 6-7, the last dosing is executed 4 hours pre hydrodynamic injection.
Mice from group 1 to group 7 are submandibularly bled for plasma preparation according to the design in Table 1. The blood samples will be collected in a tube containing heparin sodium and centrifuged at 7000×g and 4° C. for 10 min to obtain plasma samples.
On day 5, all mice in groups 1-7 are sacrificed and dissected to obtain livers (two pieces of left lobe, one piece of middle lobe and one piece of right lobe) according to the regimen in table 1. […]
Run qPCR for HBV DNA quantification. • a. […]
HBV DNA quantity=DNA determined by HBV primer-DNA determined by plasmid primer. […]

[3] = tested on: adjuvant-induced arthritis; assay: Adjuvant-Induced Arthritis (AIA) in Lewis rats; conditions: 35 days and 45 days treatment sections

Structure (SMILES)	ssDNA in liver by southern blot (HBV [1]; RASS 8 prophylactic treatment or ETV treatment)	HBV intermediate DNA in liver by real-time PCR (HBV [1]; day 5)	HBsAg level in plasma (HBV [1]; therapeutic treatment, within 5 days post HDI)	inhibition to HBV replication (plasma HBV DNA) (HBV [1]; therapeutically-treated, day 3 post HDI to end)	HBV replication in livers by real-time PCR (HBV [2]; day 5)	HBsAg generation (HBV [2]; oral 0.1 mg/kg, day 3)	body weight vs saline group [3]
C=C1[C@H](CO)[C@@H](O)C[C@@H]1n1cnc2c(=O)[nH]c(N)nc21 [entecavir, Entecavir, reference compound]	decreased dramatically	significantly decreased	didn't have significant inhibition	significant inhibition	significantly inhibited HBV replication in livers	significant increase	–
C[C@@H]1C[C@H]2[C@@H]3CCC4=CC(=O)C=C[C@]4(C)[C@@]3(F)[C@@H](O)C[C@]2(C)[C@@]1(O)C(=O)CO [Dex, Dexamethasone]	–	–	–	–	–	–	reduction of body weight
